Laboratory results: patent US5298490A, “Tetra and penta-peptides useful in regulating the immune system” (Immunobiology Research Institute, Inc., priority 1990, dated 1994)
Square brackets hold non-standard residues; d marks the D form. Ends that are not written are not given here. Peptide text beside a SMILES is read from it. Aib = CC(C)(N)C(=O)O

Assays:
MOLT-4 cells [1] = experiment: Cyclic GMP assay in MOLT-4 cells; format: cell-based, human; details: for activity in cGMP dose-response curves (FIG. 1): evaluated from 1 to 1000 μgs/ml in MOLT-4 cells
Description: This assay measures the ability of a peptide of this invention to bind to the cell membrane receptor of the intact MOLT-4 cell and selectively stimulate production of cyclic GMP, as does human thysplenin and human thymopentin.
The MOLT-4 cell line was obtained from the American Type Culture Collection of Rockville, Md. MOLT-4 cells were freshly seeded and grown for 3 days with harvesting as described in T. Audhya et al, Arch. Biochem Biophys., 234: 167-177 (1984). The cells were washed 3 times in PBS and resuspended in RPMI 1640 at a concentration of 1.0×10^7 cells/ml and were allowed to equilibrate at 37° C. for 30 minutes before the addition of the test tetrapeptides and pentapeptides (25 ul) and control peptides. The incubation was allowed to proceed in a shaking water bath for 4-5 minutes and was then terminated by addition of 1 ml ice-cold TCA (10 percent).
The cells in TCA were homogenized and sonicated to release cyclic nucleotide. The suspension was centrifuged at 3000×g for 20 minutes at 4° C. The resulting precipitate was dissolved in 0.1N NaOH to determine the protein content. TCA was removed from the supernatant fraction by extracting 4 times with 5 ml of water-saturated diethyl ether. After the final extraction, the remaining traces of ether were removed by heating for 10 minutes in a 50° C. water bath. After lyophilization the sample was reconstituted in 50 mM acetate buffer (pH 6.2) for radioimmunoassay of cyclic GMP.
A threshold activity was determined for each peptide tested. This is defined as the lowest concentration of the test peptide which induced an intracellular level of cyclic GMP greater than two standard deviations above the control. The controls had intracellular cyclic GMP values of less than 0.5 picomoles/ml (mean±standard deviation). Test results were considered positive if the level of cyclic GMP was greater than 2 times (2 standard deviations) that determined for the parallel negative control.

[2] = Enzymatic stability in human serum; format: in vitro ADME; details: 37° C., HPLC
Description: Thymopentin was 50% degraded at about 20 seconds.

[3] = Enzymatic stability in rat intestinal juice; details: 37° C., HPLC
Method: To illustrate the stability of a peptide of the present invention against degradation by intestinal and serum enzymes, an exemplary peptide Acetyl-Arg-Pro-Asp-Val-NH2 was incubated at 37° C. in rat intestinal juice and human serum for up to 120 minutes. Similarly treated for comparison were the tetrapeptide Arg-Lys-Asp-Val and thymopentin.

BP8 murine tumor cells = experiment: BP8 tumor inhibition assay; format: in vivo, C3H mice; details: 30 ng or 30 μg subcutaneously once per week, vs glycine-raffinose vehicle
Method: An assay is performed using normal healthy C3H laboratory mice. The mice, in groups of 12 to 20, are injected subcutaneously with either 30 ng or 30 μg of a peptide of the present invention once per week. This peptide (acetyl-Arg-Pro-Val-Ala-NH2) called splenoralin was administered in citrate buffer containing 1% glycine and 2% D-raffinose pentahydrate, as described in pending United States patent application Ser. No. 336,236, incorporated herein by reference. A control group of mice were injected similarly with 30 μg of the glycine-raffinose vehicle without the peptide.
Four weeks after the initiation of these weekly injections, each mouse was inoculated intradermally with 5×10^6 BP8 murine tumor cells. BP8 is a conventional benzpyrene induced murine tumor. Once every week thereafter, each mouse is injected with the same amount of either the peptide formulation or the vehicle alone.
FIG. 3 indicates the percent of mice in each group which are negative for the presence of BP8 tumors in the days after the inoculation of tumor cells. FIG. 4 indicates for the same experiment the maximum size of tumors in those mice that did develop tumors.

[4] = test system: non-obese diabetic (NOD) mice; experiment: Diabetic mice assay; format: in vivo; details: 1 mg/kg body weight one time a week from weaning, vs vehicle
Description: A strain of non-obese diabetic (NOD) laboratory mice maintained in Hopital Necker, Paris, France, have been bred in which the females spontaneously develop autoimmune disease of the pancreas. In the normal course of this disease in mice, the pancreatic cells are destroyed, resulting in loss of insulin production and diabetes mellitus. This mouse strain thus is a close model of Type I onset juvenile diabetes, which is normally treated with insulin replacement, but which can be typically slowed by immunosuppressive drugs, e.g., cyclosporin.
In this assay, groups of 12 to 20 NOD female mice are injected with 1 mg/kg body weight of a peptide of the present invention one time a week at weaning. This peptide (acetyl-Arg-Pro-Val-Ala-NH2) called splenoralin was administered the above-described formulation containing glycine and raffinose. A control group of mice were injected similarly with 1 mg of the glycine-raffinose vehicle without the peptide one time a week.

[5] = Kisfaludy et al 1983; cited from earlier work
MOLT-4 cells [6] = details: cited from earlier work
CEM cells = details: cited from earlier work
[7] = Table I, peptide concentration 1 μg/ml
[8] = Table I, peptide concentration 10 μg/ml
[9] = Table I, peptide concentration 100 μg/ml
[10] = Table I, peptide concentration 1000 μg/ml
[11] = Table II, peptide concentration 1 μg/ml
[12] = Table II, peptide concentration 10 μg/ml
[13] = Table II, peptide concentration 100 μg/ml

CC(=O)N[C@@H](CCCNC(=N)N)C(=O)NC(C)(C)C(=O)N[C@@H](C)C(=O)N[C@H](C(N)=O)C(C)C [Acetyl-Arg--Aib--Ala--Val--NH2, Acetyl-Arg-Aib-Ala-Val-NH2] (Ac-R[Aib]AV-NH2)
cGMP Concentration (MOLT-4 cells [1]; [7]): 18.78 picograms/ml | cGMP Concentration (MOLT-4 cells [1]; [8]): 30.45 picograms/ml | cGMP Concentration (MOLT-4 cells [1]; [9]): 36.17 picograms/ml | cGMP Concentration (MOLT-4 cells [1]; [10]): 39.48 picograms/ml

CC(=O)N[C@@H](CCCNC(=N)N)C(=O)NC(C)(C)C(=O)N[C@@H](CCC(=O)O)C(=O)N[C@H](C(N)=O)C(C)C [Acetyl-Arg--Aib--Glu--Val--NH2, Acetyl-Arg-Aib-Glu-Val-NH2] (Ac-R[Aib]EV-NH2)
cGMP Concentration (MOLT-4 cells [1]; [7]): 3.7 picograms/ml | cGMP Concentration (MOLT-4 cells [1]; [8]): 11.0 picograms/ml | cGMP Concentration (MOLT-4 cells [1]; [9]): 17.7 picograms/ml | cGMP Concentration (MOLT-4 cells [1]; [10]): 24.9 picograms/ml

CC(=O)N[C@@H](CCCNC(=N)N)C(=O)N1CCC[C@H]1C(=O)N[C@@H](C)C(=O)N[C@H](C(N)=O)C(C)C [Acetyl-Arg--Pro--Ala--Val--NH2, Acetyl-Arg-Pro-Ala-Val-NH2] (Ac-RPAV-NH2)
cGMP Concentration (MOLT-4 cells [1]; [7]): 7.1 picograms/ml | cGMP Concentration (MOLT-4 cells [1]; [8]): 14.6 picograms/ml | cGMP Concentration (MOLT-4 cells [1]; [9]): 19.1 picograms/ml | cGMP Concentration (MOLT-4 cells [1]; [10]): 24.5 picograms/ml | activity in cGMP dose-response curves (FIG. 1) (MOLT-4 cells [1]): active

CC(=O)N[C@@H](CCCNC(=N)N)C(=O)N1CCC[C@H]1C(=O)N[C@@H](CC(=O)O)C(=O)N[C@H](C(N)=O)C(C)C [Acetyl-Arg--Pro--Asp--Val--NH2, Acetyl-Arg-Pro-Asp-Val-NH2] (Ac-RPDV-NH2)
cGMP Concentration (MOLT-4 cells [1]; [7]): 4.55 picograms/ml | cGMP Concentration (MOLT-4 cells [1]; [8]): 8.99 picograms/ml | cGMP Concentration (MOLT-4 cells [1]; [9]): 19.62 picograms/ml | cGMP Concentration (MOLT-4 cells [1]; [10]): 24.09 picograms/ml | time remaining substantially undegraded [2]: at least 120 seconds | time remaining substantially undegraded ([3]; rat intestinal juice): at least 120 seconds

CC(=O)N[C@@H](CCCNC(=N)N)C(=O)N1CCC[C@H]1C(=O)N[C@@H](CCC(N)=O)C(=O)N[C@H](C(N)=O)C(C)C [Acetyl-Arg--Pro--Gln--Val--NH2] (Ac-RPQV-NH2)
cGMP Concentration (MOLT-4 cells [1]; [7]): 18.75 picograms/ml | cGMP Concentration (MOLT-4 cells [1]; [8]): 29.68 picograms/ml | cGMP Concentration (MOLT-4 cells [1]; [9]): 34.98 picograms/ml | cGMP Concentration (MOLT-4 cells [1]; [10]): 40.23 picograms/ml

CC(=O)N[C@@H](CCCNC(=N)N)C(=O)N1CCC[C@H]1C(=O)N[C@@H](CCC(=O)O)C(=O)N[C@H](C(N)=O)C(C)C [Acetyl-Arg--Pro--Glu--Val--NH2, Acetyl-Arg-Pro-Glu-Val-NH2] (Ac-RPEV-NH2)
cGMP Concentration (MOLT-4 cells [1]; [7]): 4.7 picograms/ml | cGMP Concentration (MOLT-4 cells [1]; [8]): 9.41 picograms/ml | cGMP Concentration (MOLT-4 cells [1]; [9]): 16.76 picograms/ml | cGMP Concentration (MOLT-4 cells [1]; [10]): 25.00 picograms/ml

CC(=O)N[C@@H](CCCNC(=N)N)C(=O)N1CCC[C@H]1C(=O)N[C@H](C(=O)N[C@@H](C)C(N)=O)C(C)C [Acetyl-Arg--Pro--Val--Ala--NH2, Acetyl-Arg-Pro-Val-Ala-NH2] (Ac-RPVA-NH2)
cGMP Concentration (MOLT-4 cells [1]; [11]): 7.77 picograms/ml | cGMP Concentration (MOLT-4 cells [1]; [12]): 17.39 picograms/ml | cGMP Concentration (MOLT-4 cells [1]; [13]): 24.47 picograms/ml | activity in cGMP dose-response curves (FIG. 2) (MOLT-4 cells [1]; evaluated from 1 to 100 μgs/ml in MOLT-4 cells): active | resistance to BP8 tumor growth (percent tumor negative, tumor size; FIG. 3, 4) (BP8 murine tumor cells): enabled the mice to resist the spread and growth of the tumor cells | incidence of diabetes / survival in NOD female mice (FIG. 6) [4]: restored the immune function and allowed survival of a greater number of animals than did the placebo

CC(=O)N[C@@H](CCCNC(=N)N)C(=O)N1CCC[C@H]1C(=O)N[C@@H](CC(=O)O)C(=O)N1CCC[C@H]1C(N)=O [Acetyl-Arg-Pro-Asp-Pro-NH2, reference compound] (Ac-RPDP-NH2)
activity in cGMP dose-response curves (FIG. 1) (MOLT-4 cells [1]): inactive

CC(C)[C@H](NC(=O)[C@H](CC(=O)O)NC(=O)[C@H](CCCCN)NC(=O)[C@@H](N)CCCNC(=N)N)C(=O)O [Arg-Lys-Asp-Val, reference compound] (H-RKDV-OH)
time after which totally digested ([3]; rat intestinal juice and human serum, matrix of this value not stated): 25 s

Acetyl-Arg-Pro-beta-Asp-Gly-NH2 [Acetyl-Arg--Pro-β-Asp--Gly--NH2]
cGMP Concentration (MOLT-4 cells [1]; [7]): 20.56 picograms/ml | cGMP Concentration (MOLT-4 cells [1]; [8]): 31.83 picograms/ml | cGMP Concentration (MOLT-4 cells [1]; [9]): 36.66 picograms/ml | cGMP Concentration (MOLT-4 cells [1]; [10]): 34.95 picograms/ml

Acetyl-Arg-Pro-β-D-Asp-Val-NH2 [Acetyl-Arg--Pro-β-D-Asp--Val--NH2]
cGMP Concentration (MOLT-4 cells [1]; [7]): 6.6 picograms/ml | cGMP Concentration (MOLT-4 cells [1]; [8]): 14.3 picograms/ml | cGMP Concentration (MOLT-4 cells [1]; [9]): 20.5 picograms/ml | cGMP Concentration (MOLT-4 cells [1]; [10]): 25.0 picograms/ml | activity in cGMP dose-response curves (FIG. 1) (MOLT-4 cells [1]): active

Arg-Ala-Asp-Val (RADV; printed: Arg-Ala-Asp-Val)
activity in in vitro E rosette test [5]: drastically reduced activity

Arg-Lys-Ala-Val (RKAV; printed: Arg-Lys-Ala-Val)
activity in in vitro E rosette test [5]: drastically reduced activity

Arg-Lys-Glu-Val (RKEV; printed: Arg-Lys-Glu-Val)
activity in in vitro E rosette test [5]: highly active

RKDVY [Arg--Lys--Asp--Val--Tyr, Arg-Lys-Asp-Val-Tyr, reference compound]
cGMP Concentration (MOLT-4 cells [1]; [7]): 6.4 picograms/ml | cGMP Concentration (MOLT-4 cells [1]; [8]): 18.3 picograms/ml | cGMP Concentration (MOLT-4 cells [1]; [9]): 20.8 picograms/ml | cGMP Concentration (MOLT-4 cells [1]; [10]): 21.9 picograms/ml | cGMP Concentration (MOLT-4 cells [1]; [11]): 3.55 picograms/ml | cGMP Concentration (MOLT-4 cells [1]; [12]): 13.56 picograms/ml | cGMP Concentration (MOLT-4 cells [1]; [13]): 18.70 picograms/ml | cGMP Concentration (MOLT-4 cells [1]; Table II, peptide concentration 1000 μg/ml): 24.85 picograms/ml | biological changes in MOLT-4 cells (MOLT-4 cells [6]): induce biological changes | biological changes in CEM cells (CEM cells): induce biological changes

thymopoietin: immunomodulatory protein isolated from bovine and human thymus (PEFLEDPSVLTKDKLKSELVANNVTLPAGEQRKDVYVQLYLQHLTARNR; Thymopoietin; UniProt P42166 2-50, looked up)
biological changes in MOLT-4 cells (MOLT-4 cells [6]): induce biological changes | biological changes in CEM cells (CEM cells): induce biological changes
